# Patent US10208288B2, “Differentiation of human embryonic stem cells into pancreatic endocrine cells” (Janssen Biotech, Inc., priority 2012, dated 2019)
# Test system: cells of the human embryonic stem cell line H1 differentiated to stage 6
# Experiment: Phase contrast imaging of endocrine cluster formation in stage 6 cultures
# Format: cell-based
# Experimental: Cells of the human embryonic stem cell line H1 (hESC H1, passage 40) were seeded as single cells at 1×10^5 cells/cm^2 on MATRIGEL™ (1:30 dilution; BD Biosciences, NJ) coated dishes in mTeSR®1 media (StemCell Technologies, Vancouver, Canada) supplemented with 10 μM of Y27632. Forty-eight hours post seeding, cultures were washed in incomplete PBS (phosphate buffered saline without Mg or Ca). Cultures were differentiated into pancreatic endoderm/endocrine lineages as follows: • a) Stage 1 (Definitive Endoderm (DE)—3 days): Cells were cultured for one day in stage 1 media (see Example 1, above). Cells were then cultured for an additional day in MCDB-131 medium supplemented with 0.1% fatty acid-free BSA, 0.0012 g/ml sodium bicarbonate, 1× GlutaMax™, 4.5 mM D-Glucose, 100 ng/ml GDF8, and 0.1 μM MCX compound. Cells were then cultured for an additional day in MCDB-131 medium supplemented with 0.1% fatty acid-free BSA, 0.0012 g/ml sodium bicarbonate, 1× GlutaMax™, 4.5 mM D-Glucose, and 100 ng/ml GDF8, then • b) Stage 2 (Primitive gut tube—2 days): Cells were treated for two days with MCDB-131 medium supplemented with 0.1% fatty acid-free BSA; 0.0012 g/ml sodium bicarbonate; 1× GlutaMax™; 4.5 mM D-Glucose; 0.25 mM ascorbic acid (Sigma, Mo.) and 25 ng/ml FGF7 (R & D Systems, MN), then • c) Stage 3 (Foregut—2 days): Cells were treated with MCDB-131 medium supplemented with a 1:200 dilution of ITS-X (Invitrogen, Ca); 4.5 mM Glucose; 1× GlutaMax™; 0.0017 g/ml sodium bicarbonate; 2% fatty acid-free BSA; 0.25 μM SANT-1 (Sigma, Mo.); 10 ng/ml of Activin-A (R& D Systems, MN); 1 μM RA (Sigma, Mo.); 25 ng/ml FGF7; 0.25 mM ascorbic acid; 200 nM TPB (PKC activator; Catalog No. 565740; EMD Chemicals, Gibstown, N.J.); 10 μM forskolin (FSK, Sigma, Mo.), and 100 nM LDN (BMP receptor inhibitor; Catalog No. 04-0019; Stemgent, Calif.) for day 1. […]
smiles,measurement,setting,value
"CCCCCCCCCCCCC/C=C/[C@@H](O)[C@@H](N)COP(=O)(O)O [S1P, sphingosine-1-phosphate]",time at which endocrine clusters emerged after start of stage 6,"10 μM added for three days at stage 6, FIG. 6A, 6B",3 days
same,formation of clusters earlier than in control cultures,"10 μM at stage 6, vs control cultures",about 7 days
same,clustering of endocrine cells,"S6 cultures, day 7, phase contrast, FIG. 4B",clear evidence of clustering of endocrine cells
same,appearance of endocrine clusters,"S6 cultures, day 10, phase contrast, FIG. 4C, 4D",clusters were separated from each other by a thin layer of pancreatic endoderm epithelium
